Source: patent publication US4775685A, “2,4-diphenyl-1,3-dioxanes” (Imperial Chemical Industries PLC, priority 1985, dated 1988)

Experiments:
[1] = target: T1, TXA2 (Oryctolagus cuniculus, UniProt Q6WQI8); assay: Test (a): rabbit aortal strip model, TXA2 antagonism; conditions: (+0.05) for (i)-(iii)
T1 construct: agonist TXA2 (from rabbit platelet-rich plasma) or U46619
T1 sequence (Q6WQI8 1-233): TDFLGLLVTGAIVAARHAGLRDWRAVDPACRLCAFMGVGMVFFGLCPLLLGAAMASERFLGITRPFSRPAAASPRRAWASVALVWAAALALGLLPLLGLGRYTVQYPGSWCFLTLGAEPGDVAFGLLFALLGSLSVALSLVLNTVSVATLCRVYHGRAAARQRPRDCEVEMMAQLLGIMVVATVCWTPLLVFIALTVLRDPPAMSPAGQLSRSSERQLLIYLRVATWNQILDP
Description: As stated earlier, the compounds of formula I are antagonists of one or more of the actions of TXA2, for example certain of its actions on blood platelets, the vasculature and/or the lung.
(a) The rabbit aortal strip model devised by Piper and Vane (Nature, 1969, 223, 29-35) using as agonist a freshly prepared sample of TXA2, generated by addition of arachidonic acid (25 μg) to citrated, platelet rich rabbit plasma (250 μl ) and allowing the mixture to aggregate fully over 90 seconds before use; alternatively the TXA2 mimetic agent known as U46619 (described by R. L. Jones et alia in "Chemistry, Biochemistry and Pharmacological Activity of Prostanoids" edited by S. M. Roberts and F. Scheinmann, at page 211; Pergamon Press, 1979) may be used as the agonist; and […]

[2] = target: T2, U46619 stimulated platelet aggregation (Homo sapiens, UniProt P21731); assay: Test (b): blood platelet aggregation test (U46619, human citrated platelet-rich plasma); type: cell-based
T2 construct: aggregating human, citrated, platelet-rich plasma by addition of the TXA2 mimetic agent U46619; endogenous in cells; host or cells: human platelets in citrated platelet-rich plasma
T2 sequence (P21731 1-343): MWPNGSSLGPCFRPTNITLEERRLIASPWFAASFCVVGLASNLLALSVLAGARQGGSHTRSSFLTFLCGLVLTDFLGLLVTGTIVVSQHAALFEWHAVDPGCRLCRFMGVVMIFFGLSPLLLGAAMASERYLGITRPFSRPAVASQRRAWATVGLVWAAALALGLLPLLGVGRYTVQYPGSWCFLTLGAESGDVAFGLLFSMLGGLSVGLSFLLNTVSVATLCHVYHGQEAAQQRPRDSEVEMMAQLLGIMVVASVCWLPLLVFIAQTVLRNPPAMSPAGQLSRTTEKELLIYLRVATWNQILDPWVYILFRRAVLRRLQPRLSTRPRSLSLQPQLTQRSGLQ
From the text: (b) a blood platelet aggregation test based on that described by Born (Nature, 1962, 194, 927-929) and involving:
(i) aggregating human, citrated, platelet-rich plasma by addition of the TXA2 mimetic agent U46619 so that a dose-response curve is generated;
(iii) calculating a KB value indicating potency of TXA2 antagonism for the test compound, averaged over several concentrations, from the calculated 50% response value for U46619 aggregation in the presence and absence of test compound; and […]

SMILES	pA2 [1]	Kb [2] [nM]
O=C(O)CCC/C=C\C[C@@H]1CO[C@H](c2ccccc2Cl)O[C@@H]1c1ccccc1 (relative stereo) [(iv), 5(Z)-7-([2,4,5-cis]-2-o-chlorophenyl-4-phenyl-1,3-dioxan-5-yl)heptenoic acid, reference compound]	6.22	
N#Cc1ccc([C@H]2OC[C@@H](C/C=C\CCCC(=O)O)[C@@H](c3ccccc3)O2)cc1 (relative stereo) [(v), 5(Z)-7([2,4,5-cis]-2-p-cyanophenyl-4-phenyl-1,3-dioxan-5-yl)heptenoic acid, reference compound]	5.65	
O=C(O)CC/C=C\C[C@@H]1CO[C@H](c2ccccc2Cl)O[C@@H]1c1ccccc1O (relative stereo) [compound (i), 4(Z)-6-([2,4,5-cis]-2-o-chlorophenyl-4-o-hydroxyphenyl-1,3-dioxan-5-yl)hexenoic acid]	8.02	
N#Cc1ccccc1[C@H]1OC[C@@H](C/C=C\CCC(=O)O)[C@@H](c2ccccc2O)O1 (relative stereo) [compound (ii), 4(Z)-6-([2,4,5-cis]-2-o-cyanophenyl-4-o-hydroxyphenyl-1,3-dioxan-5-yl)hexenoic acid]	8.09	0.834
N#Cc1ccc([C@H]2OC[C@@H](C/C=C\CCC(=O)O)[C@@H](c3ccccc3O)O2)cc1 (relative stereo) [compound (iii)]	7.45	5.49
